Test: ESI positive response factor (isotope-corrected peak area per molar concentration) in SFC/ESI/HRMS (area units per M); higher = higher ionization efficiency
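Note: standards in acetonitrile/water run in triplicate on a zwitterionic HILIC column, CO2–methanol gradient containing 20 mmol/L ammonium acetate, postcolumn makeup flow, Orbitrap full-scan detection.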

Row | Structure (SMILES) | ESI positive response factor (0.0175 µM) | ESI positive response factor (0.0875 µM) | ESI positive response factor (0.175 µM) | ESI positive response factor (0.35 µM) | ESI positive response factor (0.875 µM) | ESI positive response factor (1.75 µM) | ESI positive response factor (0.0122 µM) | ESI positive response factor (0.0244 µM) | ESI positive response factor (0.061 µM) | ESI positive response factor (0.122 µM) | ESI positive response factor (0.244 µM) | ESI positive response factor (0.035 µM)
1 | C1CN(CCOCCN2CCOCC2)CCO1 [4,4'-(Oxydi-2,1-ethanediyl)bismorpholine] | 4.89e+17 | 1.92e+17 | 3.18e+17 | 3.23e+17 | 4.13e+17 | 3.43e+17 | – | – | – | – | – | –
2 | Cc1cc(=O)oc2cc(O)ccc12 [4-Methylumbelliferone] | – | – | – | – | – | – | 7.52e+16 | 8.88e+16 | 7.61e+16 | 7.61e+16 | 7.56e+16 | –
3 | O=c1ccnc[nH]1 [4-Pyrimidinol] | 1.78e+16 | – | – | – | – | – | – | – | – | – | – | 2.97e+16
4 | Cn1c(N)c(NC=O)c(=O)n(C)c1=O [6-Amino-1,3dimethyl-5-(formylamino)uracil] | – | 8.08e+14 | – | 2.17e+15 | 2.09e+15 | 2.18e+15 | – | – | – | – | – | –
5 | C#C[C@]1(O)CC[C@H]2[C@@H]3CCc4cc(O)ccc4[C@H]3CC[C@@]21C [17-Alpha-Ethinylestradiol] | – | 1.85e+16 | 1.59e+16 | 1.71e+16 | – | – | – | – | – | – | – | 1.46e+16
6 | CC(=O)NCCCS(=O)(=O)O [Acamprosate] | – | – | 3.1e+15 | 3.14e+15 | 3.18e+15 | 3.25e+15 | – | – | – | – | – | –
7 | CC(=O)Nc1ccc(O)cc1 [Acetaminophen] | 3.61e+16 | 4.18e+16 | 3.74e+16 | 4.29e+16 | – | – | – | – | – | – | – | 4.56e+16
8 | CC(=O)OCC[N+](C)(C)C [Acetylcholine] | 2.2e+17 | 2.4e+17 | 2.16e+17 | 2.13e+17 | – | – | – | – | – | – | – | 1.98e+17
9 | Nc1ncnc2c1ncn2C1OC(CO)C(O)C1O (stereo not drawn) [Adenosine] | – | 1.26e+17 | – | – | – | – | – | – | – | – | – | 1.46e+17
10 | COC(=O)C1=CCCN(C)C1 [Arecolin] | 4.44e+17 | 4.13e+17 | 3.78e+17 | 3.77e+17 | – | – | – | – | – | – | – | 4.27e+17
11 | COC(=O)NS(=O)(=O)c1ccc(N)cc1 [Asulam] | – | 1.31e+16 | 1.29e+16 | 1.46e+16 | 1.49e+16 | 1.43e+16 | – | – | – | – | – | 1.24e+16
12 | CCNc1nc(Cl)nc(NC(C)C)n1 [Atrazine] | 1.04e+18 | 9.8e+17 | 9.03e+17 | – | – | – | – | – | – | – | – | 1.07e+18
13 | COP(=O)(OC)SCn1c(=O)oc2cc(Cl)cnc21 [Azamethiphos] | 6.62e+17 | 6.44e+17 | 6.11e+17 | – | – | – | – | – | – | – | – | 7.29e+17
14 | COc1ccc(O)c(C(C)(C)C)c1 [Butylated hydroxyanisole] | – | 3.78e+15 | 2.82e+15 | 3.32e+15 | 3.01e+15 | – | – | – | – | – | – | –
15 | CNC(=O)Oc1cccc2c1OC(C)(C)C2 [Carbofuran] | 8.85e+16 | 8.68e+16 | 7.6e+16 | 9.93e+16 | – | – | – | – | – | – | – | 8.12e+16
16 | CC1=C(C(=O)Nc2ccccc2)SCCO1 [Carboxin] | 7.6e+16 | 1.07e+17 | 9.93e+16 | 1.1e+17 | – | – | – | – | – | – | – | 1.1e+17
17 | CON(C)C(=O)Nc1ccc(Br)c(Cl)c1 [Chlorbromuron] | – | 4.82e+16 | 4.62e+16 | 5.21e+16 | – | – | – | – | – | – | – | 4.74e+16
18 | CCOP(=O)(OCC)OC(=CCl)c1ccc(Cl)cc1Cl [Chlorfenvinphos] | 2.81e+17 | 3.25e+17 | 2.98e+17 | 4.34e+17 | – | – | – | – | – | – | – | 3.28e+17
19 | Nc1cnn(-c2ccccc2)c(=O)c1Cl [Chloridazon] | 7.49e+16 | 8.99e+16 | – | – | – | – | – | – | – | – | – | 1.01e+17
20 | C[N+](C)(C)CCCl [Chlormequate] | 1.55e+17 | 1.95e+17 | 1.76e+17 | 1.85e+17 | – | – | – | – | – | – | – | 1.26e+17
21 | COc1nc(C)nc(NC(=O)NS(=O)(=O)c2ccccc2Cl)n1 [Chlorsulfuron] | – | 4.88e+16 | 5.05e+16 | 5.61e+16 | 5.75e+16 | 5.77e+16 | – | – | – | – | – | 4.22e+16
22 | Cc1ccc(NC(=O)N(C)C)cc1Cl [Chlortoluron] | 1.29e+17 | 1.48e+17 | 1.28e+17 | 1.4e+17 | – | – | – | – | – | – | – | 1.32e+17

Further lines, results first:

Row | ESI positive response factor (0.0175 µM) | ESI positive response factor (0.0875 µM) | ESI positive response factor (0.175 µM) | ESI positive response factor (0.35 µM) | ESI positive response factor (0.875 µM) | ESI positive response factor (1.75 µM) | ESI positive response factor (0.0122 µM) | ESI positive response factor (0.0244 µM) | ESI positive response factor (0.061 µM) | ESI positive response factor (0.122 µM) | ESI positive response factor (0.244 µM) | ESI positive response factor (0.035 µM) | Structure (SMILES)
23 | – | 3.69e+17 | 4.36e+17 | 4.54e+17 | – | – | – | – | – | – | – | 4.1e+17 | CN(C)CCC=C1c2ccccc2CCc2ccccc21 [Amitriptyline]
24 | 1.75e+17 | 1.82e+17 | 1.75e+17 | 1.8e+17 | – | – | – | – | – | – | – | 1.81e+17 | CC(C)NCC(O)COc1ccc(CC(N)=O)cc1 (stereo not drawn) [Atenolol]
25 | – | 1.52e+16 | 1.36e+16 | 1.55e+16 | – | – | – | – | – | – | – | 1.45e+16 | O=c1[nH]sc2ccccc12 [Benzisothiazolinone]
26 | 1.5e+17 | 1.14e+17 | – | – | – | – | – | – | – | – | – | 1.36e+17 | C[N+](C)(C)CC(=O)O [Betaine]
27 | 8.07e+17 | 9.48e+17 | 9.83e+17 | – | – | – | – | – | – | – | – | 8.73e+17 | CCCCC(CC)CNCC(CC)CCCC (stereo not drawn) [Bis(2-ethylhexyl)amine]
28 | 1.43e+17 | 1.65e+17 | 1.64e+17 | 1.6e+17 | – | – | – | – | – | – | – | 1.76e+17 | CC(C)NCC(O)COc1ccc(C(=O)O)cc1 (stereo not drawn) [Bisoprolol-M3]
29 | 1.27e+17 | 1.25e+17 | 1.16e+17 | 1.25e+17 | – | – | – | – | – | – | – | 1.3e+17 | CCC[C@@H]1O[C@@H]2C[C@H]3[C@@H]4CCC5=CC(=O)C=C[C@]5(C)[C@H]4[C@@H](O)C[C@]3(C)[C@]2(C(=O)CO)O1 [Budesonid]
30 | 2.34e+17 | 2.03e+17 | – | – | – | – | – | – | – | – | – | 2.22e+17 | Cn1c(=O)c2c(ncn2C)n(C)c1=O [Caffeine]
31 | 5.17e+16 | 8.12e+16 | 8.2e+16 | 8.92e+16 | 9.01e+16 | 8.46e+16 | – | – | – | – | – | 8.14e+16 | CCOc1nc2cccc(C(=O)O)c2n1Cc1ccc(-c2ccccc2-c2nnn[nH]2)cc1 [Candesartan]
32 | 5.72e+16 | 6.85e+16 | 6.12e+16 | 6.45e+16 | – | – | – | – | – | – | – | 7.07e+16 | CCNC(=O)[C@H](C)OC(=O)Nc1ccccc1 [Carbetamid]

Source: the supplement of paper PMC10326909
